According to ChEMBL document CHEMBL1130377 (J Med Chem, 1997):

These molecules were tested against Melatonin receptor (Gallus gallus, UniProt P49288+P51050+P49285) (assay: Binding affinity against chicken brain melatonin receptors using 2-[125I]iodomelatonin as radioligand).

Log Ki	Structure (SMILES)
-9.74	CCC(=O)NCCc1cccc2ccc(OC)cc12
-10.14	CCC(=O)NCCc1c(OC)ccc2ccc(OC)cc12
-7.35	CCCCC(=O)NCCc1cccc2ccc(OC)cc12
-9.62	COc1ccc2ccc(OC)c(CCNC(C)=O)c2c1
-7.92	CCC(=O)NCCc1cc(OC)cc2ccc(OC)cc12
-7.71	COc1ccc2cccc(CCNC(=O)C3CC3)c2c1
-6.71	COc1ccc(C)cc1CCNC(C)=O
-7.19	CCC(=O)NCCc1c(OC)ccc2cc(C)ccc12
-9.41	COc1ccc2ccc(OC)c(CCNC(=O)C(F)(F)F)c2c1
-7.15	COc1ccc(OC)c(CCNC(C)=O)c1
-8.94	CCC(=O)NCCc1cc(Br)ccc1OC
-9.92	COc1ccc2cccc(CCNC(=O)CBr)c2c1
-8.45	CCOc1ccc2ccccc2c1CCNC(C)=O
-8.23	CCOc1ccc2ccccc2c1CCNC(=O)C(F)(F)F
-6.64	COc1ccc(C)cc1CCNC(=O)C(F)(F)F
-8.97	CCOc1ccc2ccccc2c1CCNC(=O)CC
-10.53	CCCC(=O)NCCc1cccc2ccc(OC)cc12
-6.54	COc1ccc(-c2ccccc2)cc1CCNC(C)=O
-7.25	COc1ccc2ccccc2c1CONC(C)=O
-9.26	COc1ccc2ccccc2c1CCNC(=O)C(F)(F)F

Second part, the molecule before the results:

Structure (SMILES)	Log Ki
COc1ccc2[nH]cc(CCNC(=O)C3CC3)c2c1	-8.6
COc1cccc(CCNC(=O)C(F)(F)F)c1	-5.72
COc1ccc2cccc(CCNC=O)c2c1	-8.03
CCCC(=O)NCCc1c[nH]c2cc(F)c(OC)cc12	-9.85
CCCCC(=O)NCCc1cccc2ccccc12	-6.62
COc1ccc2cccc3c2c1CC(NC(C)=O)C3 (stereo not drawn)	-7.46
CC(=O)NCCc1c[nH]c2ccccc12	-6.31
COc1ccc(OC)c(CCNC(=O)C(F)(F)F)c1	-6.94
COc1ccc2cccc(CONC(C)=O)c2c1	-8.77
CC(=O)NCCc1cccc2ccc(O)cc12	-7.52
COc1cc2c(CCNC(=O)C3CC3)c[nH]c2cc1F	-8.6
CCCNC(=O)NCCc1c[nH]c2ccc(OC)cc12	-8.17
COc1cc2ccccc2c2c1CC(NC(C)=O)CC2 (stereo not drawn)	-6.67
